{
  "source": "patent US20130267549A1",
  "about": "“Use of Pyrimidylaminobenzamide Derivatives for the Treatment of Fibrosis” (NOVARTIS AG, priority 2009, published 2013)",
  "system": "Rat Bleomycin Model",
  "assay": "Rat bleomycin model of lung fibrosis: histological analysis of interstitial collagen deposition (Picrosirius red stain)",
  "assay_type": "in vivo",
  "conditions": "co-administration with bleomycin, relative area and intensity of interstitial collagen (manual score), FIG. 1",
  "procedure": "Appl. Pharmacol. (1992)116:30-7). Another well-established model for lung fibrosis is the rat bleomycin model published by E. White et al, Am J Respir Crit Care Med. 2006, 173: 112-121.\nA histological analysis of levels of collagen deposition in the lung interstitium, as determined using Picrosirius red stain, for bleomycin alone as well as combinations of bleomycin and several other compounds, including AMN107, was performed. As depicted in FIG. 1 showing the levels of interstitial collagen in lung tissue as determined histologically using Picrosirius red stain (statistical analysis: Man Whitney rank sum test), co-administration of AMN107 can reduce the effect of bleomycin by more than 50%.",
  "data": [
    {"smiles": "Cc1cn(-c2cc(NC(=O)c3ccc(C)c(Nc4nccc(-c5cccnc5)n4)c3)cc(C(F)(F)F)c2)cn1", "note": "[AMN107, 4-methyl-3-[[4-(3-pyridinyl)-2-pyrimidinyl]amino]-N-[5-(4-methyl-1H-imidazol-1-yl)-3-(trifluoromethyl)phenyl]benzamide]", "values": [
      {"measurement": "reduction of the effect of bleomycin on levels of interstitial collagen in lung tissue", "result": "more than 50%"}
    ]}
  ]
}
